In patent publication US20250041286A1, “CANCER TREATMENT USING KETOTIFEN IN COMBINATION WITH A CHECKPOINT INHIBITOR” (Materia Therapeutics Inc., priority 2021, published 2025):

Experiments:
Type in all cases: in vivo, mouse
[1] = system: K7M2wt tumors; experiment: Tumor growth (volume, mass) under daily ketotifen, osteosarcoma model; conditions: daily ketotifen i.p. for 8 days
Procedure: Two mouse models of distinct sarcoma subtypes, fibrosarcoma (MCA205 cells) and osteosarcoma (K7M2wt cells), were used in this study.
MCA205, a mouse fibrosarcoma cell line (SCC173, Millipore), was cultured in RPMI-1640 expansion medium containing 2 mM L-glutamine, 1 mM sodium pyruvate, 10% fetal bovine serum, 1× non-essential amino acids (TMS-001-C, Sigma), 1% antibiotics (A5955, Sigma), and 1×β-mercaptoethanol. K7M2wt, a mouse osteosarcoma cell line (CRL2836™, ATCC®), was cultured in DMEM expansion medium supplemented with 10% FBS and 1% antibiotics. All cells were maintained at 37° C./5% CO2.
A fibrosarcoma syngeneic tumor model was generated by subcutaneous implantation of 2.5×10^5 MCA205 cells in 50 μL of serum-free medium into the flank of 6-week old C57BL/6 female mice. A osteosarcoma syngeneic tumor model was generated by implanting K7M2wt tumor chunks into the fat pad of 6-week old BALB/c female mice. […]
Each treatment group of 4-7 mice received subtherapeutic doses of ketotifen (1, 5, 10 and 25 mg/kg) for a period of 8 days. […] Planar dimensions (x, y) of tumor were monitored every 2-3 days using a digital caliper and tumor volume was estimated from the volume of an ellipsoid and assuming that the third dimension, z, is equal to sqrt(x y).

[2] = system: K7M2wt tumors; experiment: qPCR mRNA expression levels in tumors; conditions: 10 mg/kg ketotifen, compared with the effect in MCA205
Procedure: Total RNA was isolated from breast tumors according to the standard Trizol-based protocol (Invitrogen), and cDNA synthesis was performed using reverse transcriptase III (RT-III) enzyme and random hexamers (Invitrogen). Real-time polymerase chain reaction was performed using Sybr Fast Universal Master Mix (KAPA). Reactions were performed using a CFX-96 real-time PCR detection system (BioRad) at the following conditions: 95° C. for 2 minutes, 95° C. for 2 seconds, 60° C. for 20 seconds, 60° C. for 1 second, steps 2-4 for 39 cycles. Real-time PCR analysis and calculation of changes in gene expression between compared groups was performed using the ΔΔ^Ct method. Relative gene expression was normalized based on the expression of β-actin. For qPCR analysis, 3-5 biological samples were used per treatment and 3 technical replicates for each sample.
mRNA expression levels were evaluated in both mouse sarcoma models by qPCR, as described above.

[3] = system: K7M2wt tumors; experiment: Proliferation of CAFs, α-SMA / Ki-67 immunostaining; conditions: 10 mg/kg ketotifen
Procedure: (§1) Proliferation of CAFs was evaluated by immunostaining for the presence of alpha-smooth muscle actin (α-SMA) (ab5694, Abcam; diluted 1:50) protein and Ki-67 (Abcam; diluted 1:200) proliferation marker following antigen retrieval, 1 hour incubation in serum solution (10% FBS, 3% donkey serum in 1×PBS), and 1 hour incubation in blocking solution for endogenous mouse IgG (Abcam; diluted 1:100). Following washes with TBS-T (0.25% Tween-20), Alexa Fluor-647 anti-rabbit IgG (H+L) (Invitrogen; diluted 1:400) and Fluor-488 anti-rat IgG (H+L) (Invitrogen; diluted 1:400) secondary antibodies and DAPR (Sigma diluted 1:100 of 1 mg/mL stock) were applied for 1 hour at room temperature. Sections were then mounted on microscope slides using the ProLong gold antifade mountant (Invitrogen) and covered with a glass coverslip. CAF proliferation fraction was detected as the ratio of overlapping α-SMA (green) and Ki67 (red) positive signal to total CAF signal (α-SMA^+), indicating CAFs.

[4] = system: MCA205 tumors; experiment: as above; conditions: 10 mg/kg ketotifen
Procedure: as §1

[5] = system: K7M2wt tumors; experiment: Hyaluronan evaluation, HABP1 immunofluorescence; conditions: daily ketotifen 10 mg/kg
Procedure: (§2) Besides collagen, other structural components of tumor stroma can exert pressure and deform vessels. Such an example is the hyaluronan (e.g., hyaluronic acid), which binds to and retains excessive fluid generating gel-like regions within the tissue. Therefore, hyaluronic acid staining was performed in both sarcoma mouse models.
(§3) Tumors were removed from mice, washed twice in 1×PBS for 10 min, and incubated with 4% PFA overnight at 4° C. The fixative was aspirated, and samples were washed twice in 1×PBS for 10 min. Tissue samples were dehydrated in successive ethanol steps and xylene followed by paraffin embedding. Serial sections ([…]) of paraffin-embedded tissues were produced using the microtome (Accu-Cut SRM 200 Rotary Microtome, SAKURA), flattened out into water, and allowed to dry overnight at 37° C. Sections were then deparaffinized and rehydrated as routinely processed for histology. Tissue sections were subjected to antigen retrieval (microwave heat treatment with TriSodium Citrate, pH 6, for 20 min), washed with 1×TBS/0.025% Triton X-100 (TBS-T), and incubated in blocking solution (2% BSA, 0.2% Triton 100×) for 2 hours at room temperature. […] Hyaluronan was detected following incubation with streptavidin-FITC conjugate (Invitrogen, 1:1000) and nuclei were stained with DAPI stain at room temperature for 1 hour in the dark. […]

[6] = system: MCA205 tumors; experiment: Hyaluronan evaluation, HABP1 immunofluorescence; conditions: daily ketotifen 10 mg/kg
Procedure: as §2, §3

[7] = system: K7M2wt tumors; experiment: Mast cell tryptase staining of tumors; conditions: 10 mg/kg ketotifen
Description: (§4) Finally, to confirm the effect of ketotifen on MC inactivation, ketotifen-treated tumors were stained for tryptase, a serine protease unique to MCs with a role in myofibroblast proliferation and collagen synthesis.

[8] = system: MCA205 tumors; experiment: Mast cell tryptase staining of tumors; conditions: 10 mg/kg ketotifen
Description: as §4

SMILES: CN1CCC(=C2c3ccccc3CC(=O)c3sccc32)CC1 [ketotifen]
- antitumor effect (tumor volume and mass) [1]: No subtherepautic dose of ketotifen exhibited an antitumor effect
- mRNA levels of Col1A1, CTGF, Has2, Has3 [2]: A similar effect was observed
- CAF levels and proliferation activity (α-SMA, Ki-67) [3]: decrease
- CAF levels and proliferation activity (α-SMA, Ki-67) [4]: decrease
- expression of hyaluronan protein (HABP1 staining) [5]: reduced
- expression of hyaluronan protein (HABP1 staining) [6]: reduced
- tryptase levels [7]: reduced
- tryptase levels [8]: reduced
